# In patent publication US9649324B2, “Use of tylvalosin as antiviral agent” (ECO ANIMAL HEALTH LIMITED, priority 2006, dated 2017):
# Assays:
# [1] = test system: Caco-2 cells; test: Intracellular accumulation and trans-epithelial transport in polarised Caco-2 cells; format: in vitro ADME, human
# Protocol: Caco-2 cells were seeded at a density of 0.8×10^6 cells per well of a Transwell Clear filter 6 well plate, 0.4 μm pore size. The cells were incubated with 2 mL medium in both apical and basolateral chambers. This medium was replaced every 2 days for 10-14 days. Transepithelial resistance was measured using Millicell ERS apparatus (Millipore) at day 7, 10 and/or 14 in order to identify when the cells had become polarised. Readings of >1000 Ω were indicative of polarised cells. […]
# (§1) All the supernatant and cell samples were transported frozen (at approximately −20° C.) to York Bioanalytical Solutions (York, England) for analysis. Briefly, 0.25 g of buffer (RPMI medium containing 10% FCS) was weighed into a polypropylene tube. A 50 μL volume of the appropriate working solution was added to the quality control (QC) samples. Methanol (50 μL) was added to each blank sample used for preparation of calibration standards, recovery samples and reagent blanks. A 2.5 mL volume of 0.1 M phosphate buffer was added to each sample, vortex mixed for approximately 1 min and then centrifuged at 3220×g for 10 min at 4° C.
# (§2) For the liquid-liquid clean-up phase, an aliquot (100 μL) of the supernatant was transferred to a polypropylene tube. The pH was adjusted to pH 8-8.5 by the addition of 0.1 M NaOH, and vortex mixed. Ethyl acetate (5 mL) was added and after capping, the whole mixture was shaken for 10 min and then centrifuged at 3220×g for 10 min at 4° C.
# (§3) Ammonium acetate (20 mM; pH native)—formic acid, 1000:3, v/v (100 μL) was added to each well in a 2 mL polypropylene collection plate. An aliquot of the ethyl acetate mixture (100 μL) was transferred to the polypropylene collection plate and evaporated under nitrogen (40° C.) until the ethyl acetate was fully evaporated whilst the ammonium acetate remained. Methanol (100 μL) was added to each well, excluding the calibration standards.
# (§4) To each well containing a calibration standard, 100 μL of the appropriate calibration working solution was added. Samples were then vortex mixed for at least 10 min and submitted for liquid chromatography with tandem mass spectrometric analysis. The method stated was applicable to the samples of media (and the calibration standards and quality control samples).
# (§5) For the cells, the sample tubes were weighed, and 100 μL of acetonitrile was added. The samples were vortex mixed for 10 sec, then centrifuged at 10285×g at 4° C. for 5 min. The sample was transferred to a polypropylene tube. The original sample tube was washed with 0.1 M phosphate buffer (1 mL). This was transferred to the polypropylene tube. A second wash of 1 mL was made, then a final wash of 0.5 mL. The polypropylene tube was now at the same stage as the end of the liquid extraction, but with the cells present rather than media. This was then taken through the sample preparation as described above. The original sample tubes were allowed to dry (i.e. any remaining solvent evaporated off) and were then reweighed to determine the weight of cells in the sample, to allow the concentration per gram of cells to be determined.
# [2] = test system: LLC-PK1 cells; test: Intracellular accumulation in pig kidney epithelial cells; format: in vitro ADME; settings: LLC-PK1, 10 μg/mL
# Protocol: LLC-PKI cells in 6 cm^2 plastic tissue culture dishes were incubated with 10 μg/mL of the different macrolides. Cells and medium were harvested as described above at 30, 75 and 120 min.
# as §1, §2, §3, §4, §5
# [3] = test system: human Udorn strain of influenza; test: Influenza infection of MDCK cells, immunofluorescence (Example 4), strain Udorn; format: cell-based; settings: 1 μg/ml, 4 h pretreatment, moi 10, fixed 4 h post infection
# [4] = test system: PRRSV; test: PRRSV infection and cell spread in MA104 cells, drug added after infection (Example 5); format: cell-based; settings: moi 0.01, 1 μg/ml added 8 hours post infection
# Protocol: MA104 cells were infected with PRRSV at moi of 0.01 (should infect roughly 10% of the cells in the first round). 8 hours post infection tylvalosin, tylosin and tilmicosin were added at 1 μg/ml. Cells were harvested 28 hours post infection and infection was assessed by indirect immunofluorescence.
# As stated above a moi of 0.01 should infect roughly 10% of the cells. However, after 28 hours the virus will have completed one round of infection and will have infected neighbouring cells. […] This detection increases 16-20 hours post infection and by 24 hours low levels of expression in neighbouring cells can be detected.
# The addition of drugs 8 hours post infection should have no effect on the primary infection (i.e. no effect on entry of input virus). It could, however, effect viral replication directly or indirectly through other mechanisms and could also effect virus entry during the secondary round of infection where virus produced by the initially infected cells infects neighbouring cells.
# [5] = test system: equine arteritis virus (EAV); test: Effect on equine arteritis virus infection (Example 6); format: cell-based
# Protocol: Experiments were carried out to determine whether tylvalosin has an effect on equine arteritis virus (EAV).
# [6] = test system: PRRSV strain, VR2385; test: Efficacy of tylvalosin in feed for the control of PRRSV in challenged pigs (Example 14); format: in vivo, pig; settings: for Mean maximum respiratory score: score 0-6
# [7] = cited from earlier work
# [8] = Caco-2, 10 μg/mL, apical administration, 240 min
# [9] = Caco-2, 100 μg/mL, apical administration, 30 min
# [10] = Caco-2, 100 μg/mL, apical administration, 240 min
# [11] = Caco-2, 100 μg/mL, apical administration, between 60 min and 120 min
# [12] = Caco-2, 100 μg/mL, basolateral administration, 30 min
# [13] = Caco-2, 100 μg/mL, basolateral administration, 240 min
# [14] = Group 1, 100 ppm in feed, Trial Day 17
# [15] = Group 1, 100 ppm in feed, Trial Day 28
# [16] = Group 2, 200 ppm in feed, Trial Day 17
# [17] = Group 2, 200 ppm in feed, Trial Day 28
# [18] = Group 3, 600 ppm in feed, Trial Day 17
# [19] = Group 3, 600 ppm in feed, Trial Day 28
smiles,measurement,setting,value
"CCC1OC(=O)CC(OC(C)=O)C(C)C(OC2OC(C)C(OC3CC(C)(O)C(OC(=O)CC(C)C)C(C)O3)C(N(C)C)C2O)C(CC=O)CC(C)C(=O)C=CC(C)=CC1COC1OC(C)C(O)C(OC)C1OC (centres unmarked) [tylvalosin, 3-O acetyl-4″-O-isovaleryltylosin]",average intracellular concentration,"[1]; Caco-2, 10 μg/mL, apical administration, 120 min",42.2 μg/mg cells
same,average intracellular concentration,[1]; [8],34.3 μg/mg cells
same,basolateral chamber content as average % of the apical chamber value,[1]; [8],10.47%
same,intracellular:extracellular ratio (fold concentration),[1]; [8],3.49 fold
same,average intracellular concentration,[1]; [9],428 μg/mg cells
same,intracellular:extracellular ratio,[1]; [9],4.64
same,intracellular concentration,[1]; [10],375 μg/mg cells
same,intracellular:extracellular ratio,[1]; [10],5.85
same,tylvalosin in opposite (basolateral) chamber compared to the administration chamber,[1]; [10],19%
same,"intracellular:extracellular ratio (peak, average value)",[1]; [11],10.23-15.58
same,maximum intracellular concentration,[1]; [11],559.5-620 μg/mg cells
same,average intracellular concentration,[1]; [12],493 μg/mg cells
same,intracellular:extracellular ratio,[1]; [12],7
same,intracellular concentration,[1]; [13],155.5 μg/mg cells
same,intracellular:extracellular ratio,[1]; [13],3.57
same,tylvalosin in opposite (apical) chamber compared to the administration chamber,[1]; [13],22.05%
same,total amount of tylvalosin transported across the cells,"[1]; Caco-2, after 4 h (discussion)",about 20%
same,average intracellular concentration,[2]; 75 min,53.95 μg/mg cells
same,intracellular:extracellular ratio,[2]; 120 min,8.9
same,inhibition of infection of MDCK cells,[3],76%
same,spread of the virus to neighbouring cells,[4],prevented spread
same,virus positive cells,[4]; harvested 28 hours post infection,1%
same,EAV infection,[5],not blocked
same,severity of macroscopic pneumonia,"[6]; 100, 200, 600 ppm in feed versus non-treated controls",No differences
same,Mean average rectal temperature,"[6]; Group 1, 100 ppm in feed",103.6 ± 0.1
same,Mean maximum rectal temperature,"[6]; Group 1, 100 ppm in feed",104.5 ± 0.2 A
same,Mean microscopic PRRSV lung lesion score,"[6]; Group 1, 100 ppm in feed, Necropsy 1 (Trial Day 17, 10 days post infection)",0.2 ± 0.2 A
same,Mean microscopic PRRSV lung lesion score,"[6]; Group 1, 100 ppm in feed, Necropsy 2 (Trial Day 28, 21 days post infection)",2.1 ± 0.4
same,Average daily gain,"[6]; Group 1, 100 ppm in feed, Trial Day 7",1.57 ± .09 lbs
same,Mean real-time RT-PCR (PRRSV RNA copy numbers in serum),"[6]; Group 1, 100 ppm in feed, Trial Day 10","15,289.88 B, C"
same,Average daily gain,"[6]; Group 1, 100 ppm in feed, Trial Day 14",1.5 ± .05 lbs
same,Average daily gain,[6]; [14],1.59 ± .05 A lbs
same,Mean real-time RT-PCR (PRRSV RNA copy numbers in serum),[6]; [14],"95,315.72"
same,Mean real-time RT-PCR (PRRSV RNA copy numbers in serum),"[6]; Group 1, 100 ppm in feed, Trial Day 21","36,451.13"
same,Average daily gain,[6]; [15],1.42 ± .05 lbs
same,Mean real-time RT-PCR (PRRSV RNA copy numbers in serum),[6]; [15],"5,301.63"
same,Mean maximum respiratory score,"[6]; Group 1, 100 ppm in feed",0.5 ± 0.1 A*
same,Mean average rectal temperature,"[6]; Group 2, 200 ppm in feed",103.7 ± 0.1
same,Mean maximum rectal temperature,"[6]; Group 2, 200 ppm in feed",104.7 ± 0.2 A
same,Mean microscopic PRRSV lung lesion score,"[6]; Group 2, 200 ppm in feed, Necropsy 1 (Trial Day 17, 10 days post infection)",2.0 ± 0.3 B
same,Mean microscopic PRRSV lung lesion score,"[6]; Group 2, 200 ppm in feed, Necropsy 2 (Trial Day 28, 21 days post infection)",1.9 ± 0.3
same,Average daily gain,"[6]; Group 2, 200 ppm in feed, Trial Day 7",1.52 ± .10 lbs
same,Mean real-time RT-PCR (PRRSV RNA copy numbers in serum),"[6]; Group 2, 200 ppm in feed, Trial Day 10","19,336.8 C"
same,Average daily gain,"[6]; Group 2, 200 ppm in feed, Trial Day 14",1.45 ± .06 lbs
same,Average daily gain,[6]; [16],"1.59 ± .07 A, B lbs"
same,Mean real-time RT-PCR (PRRSV RNA copy numbers in serum),[6]; [16],"78,804.81"
same,Mean real-time RT-PCR (PRRSV RNA copy numbers in serum),"[6]; Group 2, 200 ppm in feed, Trial Day 21","18,724.88"
same,Average daily gain,[6]; [17],1.53 ± .07 lbs
same,Mean real-time RT-PCR (PRRSV RNA copy numbers in serum),[6]; [17],892.36
same,Mean maximum respiratory score,"[6]; Group 2, 200 ppm in feed",0.6 ± 0.2 A
same,Mean average rectal temperature,"[6]; Group 3, 600 ppm in feed",103.8 ± 0.1
same,Mean maximum rectal temperature,"[6]; Group 3, 600 ppm in feed",105.8 ± 0.3 B
same,Mean microscopic PRRSV lung lesion score,"[6]; Group 3, 600 ppm in feed, Necropsy 1 (Trial Day 17, 10 days post infection)",2.0 ± 0.3 B
same,Mean microscopic PRRSV lung lesion score,"[6]; Group 3, 600 ppm in feed, Necropsy 2 (Trial Day 28, 21 days post infection)",1.5 ± 0.3
same,Average daily gain,"[6]; Group 3, 600 ppm in feed, Trial Day 7",1.83 + .16 lbs
same,Mean real-time RT-PCR (PRRSV RNA copy numbers in serum),"[6]; Group 3, 600 ppm in feed, Trial Day 10","54,487.19 A, B"
same,Average daily gain,"[6]; Group 3, 600 ppm in feed, Trial Day 14",1.47 ± .06 lbs
same,Average daily gain,[6]; [18],"1.44 ± .04 A, B lbs"
same,Mean real-time RT-PCR (PRRSV RNA copy numbers in serum),[6]; [18],"146,655.4"
same,Mean real-time RT-PCR (PRRSV RNA copy numbers in serum),"[6]; Group 3, 600 ppm in feed, Trial Day 21","30,260.69"
same,Average daily gain,[6]; [19],1.47 ± .06 lbs
same,Mean real-time RT-PCR (PRRSV RNA copy numbers in serum),[6]; [19],"1,292.31"
same,Mean maximum respiratory score,"[6]; Group 3, 600 ppm in feed",1.8 ± 0.3 B
same,clinical disease and viremia associated with PRRSV infection,[6]; lower doses (in feed),appears to reduce clinical disease and viremia
same,pKa,[7],7.6
